Patent publication US20100069415A1, “2,6-DIPHENYL-4,8-DIAZOADAMANTAN-1-ONE AND DERIVATIVES THEREOF, PROCESS OF MANUFACTURE AND USE FOR THE FORMULATION OF SOLUTIONS WITH STERILIZING AND DISINFECTANT EFFECT” (PIETRO AFFAITATI, priority 2006, published 2010)

Assay: Solubility characterization of 2,6-diphenyl-4,8-diazoadamantan-1-one
Assay type: physicochemical
Text: This molecule is soluble in propylene glycol and apolar organic solvents, whereas it is insoluble in water and ethanol.

2,6-diphenyl-4,8-diazoadamantan-1-one
solubility in apolar organic solvents (solvent: apolar organic solvents): soluble | solubility in ethanol (solvent: ethanol): insoluble | solubility in propylene glycol (solvent: propylene glycol): soluble | solubility in water (solvent: water): insoluble
